# Test results published in patent publication US20030096237A1, “Determination of the ability of patients to respond to a tumor treatment” (priority 2000, published 2003).
# Columns and labels:
# Assay type in all cases: cell-based, human
# [1] = test system: CNCM I-2545 and CNCM I-2546; assay: oligonucleotide array analysis, clustering of genes by mode of regulation; conditions: 1st symbol CNCM I-2545, 2nd CNCM I-2546
# Experimental: (§1) All these cell lines were cultured in RPMI medium supplemented with 10% FCS, glutamine (2 mM), sodium pyruvate (1 mM), non-essential amino acids and HEPES buffer (10 mM) (all from GIBCO Life Sciences, Paisley, UK). When confluent, the cells were passaged by trypsinization.
# Cultured melanoma cells were harvested by scraping and total cellular RNA was extracted. 10 μg from each sample were used directly as templates for cDNA synthesis using a commercial kit (Roche Molecular Biochemicals, Rotkreuz, Switzerland). The T7 promoter sequence incorporated into the cDNA synthesis primer allowed template amplification and biotin labeling by in vitro transcription using a commercial kit (Affymetrix, Santa Clara, Calif.). After alkaline heat fragmentation […] was hybridised to the array (Affymetrix, Santa Clara, Calif.) and all subsequent steps were performed following standard procedures as supplied with the arrays. Raw data were collected with a confocal laser scanner (Hewlett Packard, Palo Alto, Calif.) using GeneChip software v3.1 (Affymetrix, Santa Clara, Calif.).
# Raw data were normalized based on the total chip signal obtained upon hybridisation of ME15 cell line cDNA. This array was selected because: i) the 5′/3′ intensity ratio of control genes was smaller than 3; ii)>25% of the genes are called “present” by Genechip; iii) the image appearance is homogeneous with low background and no sign of mechanical chip damage.
# The normalized average difference (nAD) between the signals of the perfect and of the mismatch probesets for each gene was used as the expression level of a given gene. At least one nAD value in a pairwise comparison of data has to exceed 50 to be included. Based on nAD, change factors related to IFN-α exposure were also calculated. Negative nAD values were set to 20 in order to avoid the calculation of artificially high modifications. In order to exclude artefacts, only genes with robust change factors, greater than 2-fold, were included in the analysis. […] Genes were clustered according to their mode of regulation.
# Patterns of genes expressed in IFN-α sensitive and resistant melanoma cell lines were investigated upon 48 hour culture in the presence of IFN-α. CNCM I-2546 and CNCM I-2545 were studied in detail.
# In Table 2 below, CNCM I-2546 and CNCM I-2545 cultured for 48 hours in the absence or in the presence of 100 U/ml IFN-α were used to assay cytokine modulated gene expression as matched with data obtained in fibrosarcoma cells. This analysis yielded six clusters of genes. […] Data are presented as average difference of signal intensity between match and mismatch probesets.
# In Table 3 below, CNCM I-2546 and CNCM I-2545 cell lines cultured for 48 hours in the absence or in the presence of 100 U/ml IFN-α were used to identify novel cytokine induced genes whose expression was not found to be modulated in fibrosarcoma cells. Cluster 1 includes genes inducible in the CNCM I-2546 sensitive but not in the CNCM I-2545 resistant cell line. Cluster 2 comprises genes inducible in both lines. Data are presented as average difference of signal intensity between match and mismatch probesets.
# CNCM I-2547 = assay: HLA class I induction, flow-cytometry; conditions: two days with IFN-α 100 U/ml, absence 135
# Experimental: (§2) Melanoma cell lines were screened for their sensitivity to proliferation inhibition and HLA class I induction. The study was done of six cell lines (CNCM I-2544, CNCM I-2545, CNCM I-2546, CNCM I-2547, CNCM I-2548 and CNCM I-2549).
# as §1
# (§3) A number of established melanoma cell lines were assayed for their sensitivity to IFN-α by testing the capacity of IFN-α to inhibit their proliferation and to increase their surface expression of HLA class I determinants.
# CNCM I-2548 = assay: HLA class I induction, flow-cytometry; conditions: two days with IFN-α 100 U/ml, absence 380
# Experimental: as §2, §1, §3
# CNCM I-2549 = assay: HLA class I induction, flow-cytometry; conditions: two days with IFN-α 100 U/ml, absence 203
# Experimental: as §2, §1, §3
# CNCM I-2546 = assay: HLA class I induction, flow-cytometry; conditions: two days with IFN-α 100 U/ml, absence 257
# Experimental: as §2, §1, §3
# CNCM I-2545 = assay: HLA class I induction, flow-cytometry; conditions: two days with IFN-α 100 U/ml, absence 196
# Experimental: as §2, §1, §3
substance,measurement,setting,value
IFN-α,cluster's characteristics D28137 bst-2,[1]; Cluster 1,˜u
same,cluster's characteristics D49824 hla-b null allele,[1]; Cluster 1,˜u
same,"cluster's characteristics HG658 major histocompatibility complex, class 1 c",[1]; Cluster 1,˜u
same,"cluster's characteristics HG2917 major histocompatibility complex, class i, e",[1]; Cluster 1,˜u
same,cluster's characteristics J00105 beta-2 microglobulin gene,[1]; Cluster 1,˜u
same,cluster's characteristics J04164 interferon-inducible protein 27-sep,[1]; Cluster 1,˜u
same,cluster's characteristics M13755 interferon-induced 17-kda/15-kda protein,[1]; Cluster 1,˜u
same,"cluster's characteristics M19650 2′,3′-cyclic nucleotide 3prime-phosphodiesterase",[1]; Cluster 1,˜u
same,cluster's characteristics M94880 mhc class i (hla-a*8001),[1]; Cluster 1,˜u
same,"cluster's characteristics U22970 16-jun gene, interferon-inducible peptide (6-16)",[1]; Cluster 1,˜u
same,cluster's characteristics U50648 interferon-inducible rna-dependent protein kinase (pkr),[1]; Cluster 1,˜u
same,cluster's characteristics U51127 interferon regulatory factor 5,[1]; Cluster 1,˜u
same,cluster's characteristics X02874 2-5A synthetase (1.6 kb),[1]; Cluster 1,˜u
same,cluster's characteristics X07730 prostate specific antigen,[1]; Cluster 1,˜u
same,cluster's characteristics X57351 1-8d gene from interferon-inducible gene family,[1]; Cluster 1,˜u
same,cluster's characteristics X57522 ring4 cdna,[1]; Cluster 1,˜u
same,cluster's characteristics X67325 p27,[1]; Cluster 1,˜u
same,cluster's characteristics X96401 rox protein,[1]; Cluster 1,˜u
same,cluster's characteristics Z56281 interferon regulatory factor 3,[1]; Cluster 1,˜u
same,cluster's characteristics M98343 amplaxin (ems1),[1]; Cluster2,uu
same,cluster's characteristics J03909 gamma-interferon-inducible protein (ip-30),[1]; Cluster3,u˜
same,cluster's characteristics M92642 alpha-1 type xvi collagen (col16a1),[1]; Cluster3,u˜
same,cluster's characteristics U41515 dss1,[1]; Cluster3,u˜
same,cluster's characteristics L40387 thyroid receptor interactor (trip14),[1]; Cluster4,du
same,cluster's characteristics M97935 transcription factor isgf-3,[1]; Cluster4,du
same,cluster's characteristics U01824 glutamate/aspartate transporter,[1]; Cluster4,du
same,cluster's characteristics U53830 interferon regulatory factor 7a,[1]; Cluster4,du
same,cluster's characteristics U72882 interferon-induced leucine zipper protein (ifp35),[1]; Cluster4,du
same,cluster's characteristics J00212 leukocyte interferon (ifn-alpha),[1]; Cluster 5,d˜
same,cluster's characteristics K01900 lymphocyte interferon alpha type 201,[1]; Cluster 5,d˜
same,cluster's characteristics L42243 ifnar2 gene (interferon receptor),[1]; Cluster 5,d˜
same,cluster's characteristics M79462 pml-1,[1]; Cluster 5,d˜
same,cluster's characteristics U52513 rig-g,[1]; Cluster 5,d˜
same,cluster's characteristics X90846 mixed lineage kinase 2,[1]; Cluster 5,d˜
same,cluster's characteristics M30818 interferon-induced cellular resistance mediator protein,[1]; Cluster 6,˜d
same,cluster's characteristics X15949 interferon regulatory factor-2 (irf-2),[1]; Cluster 6,˜d
same,cluster's characteristics D21235 hhr23a protein,[1]; Table 3 Cluster 1,˜u
same,cluster's characteristics D28137 bst-2,[1]; Table 3 Cluster 1,˜u
same,cluster's characteristics D32050 alanyl-trna synthetase,[1]; Table 3 Cluster 1,˜u
same,cluster's characteristics D50914 EST,[1]; Table 3 Cluster 1,˜u
same,cluster's characteristics HG1612 macmarcks,[1]; Table 3 Cluster 1,˜u
same,cluster's characteristics K03515 neuroleukin,[1]; Table 3 Cluster 1,˜u
same,cluster's characteristics L13210 mac-2 binding protein,[1]; Table 3 Cluster 1,˜u
same,cluster's characteristics L37043 casein kinase i epsilon,[1]; Table 3 Cluster 1,˜u
same,cluster's characteristics M31013 nonmuscle myosin heavy chain (nmhc),[1]; Table 3 Cluster 1,˜u
same,cluster's characteristics M34338 spermidine synthase,[1]; Table 3 Cluster 1,˜u
same,cluster's characteristics S81914 iex-1 = radiation-inducible immediate-early gene,[1]; Table 3 Cluster 1,˜u
same,cluster's characteristics U09579 melanoma differentiation associated (mda-6),[1]; Table 3 Cluster 1,˜u
same,cluster's characteristics U18009 chromosome 17q21 clone lf113,[1]; Table 3 Cluster 1,˜u
same,cluster's characteristics U18018 ela enhancer binding protein (ela-f),[1]; Table 3 Cluster 1,˜u
same,cluster's characteristics U47025 fetal brain glycogen phosphorylase b,[1]; Table 3 Cluster 1,˜u
same,cluster's characteristics U50327 protein kinase c substrate 80k-h gene (prkcsh),[1]; Table 3 Cluster 1,˜u
same,cluster's characteristics U61263 acetolactate synthase homolog,[1]; Table 3 Cluster 1,˜u
same,cluster's characteristics U65579 mitochondrial nadh dehydrogenase-ubiquinone,[1]; Table 3 Cluster 1,˜u
same,cluster's characteristics U65932 extracellular matrix protein 1 (ecm1),[1]; Table 3 Cluster 1,˜u
same,cluster's characteristics U69126 fuse binding protein 2 (fbp2),[1]; Table 3 Cluster 1,˜u
same,cluster's characteristics U72206 guanine nucleotide regulatory factor (lfp40),[1]; Table 3 Cluster 1,˜u
same,cluster's characteristics U91316 acyl-coa thioester hydrolase,[1]; Table 3 Cluster 1,˜u
same,cluster's characteristics X04412 plasma gelsolin,[1]; Table 3 Cluster 1,˜u
same,cluster's characteristics X76538 mpv17,[1]; Table 3 Cluster 1,˜u
same,cluster's characteristics X95325 dna binding protein a variant,[1]; Table 3 Cluster 1,˜u
same,cluster's characteristics Y00264 amyloid a4 precursor,[1]; Table 3 Cluster 1,˜u
same,cluster's characteristics Z26491 gene catechol o-methyltransferase,[1]; Table 3 Cluster 1,˜u
same,"cluster's characteristics D78132 rheb gene, ras-related gtp binding protein gene",[1]; Table 3 Cluster 2,uu
same,cluster's characteristics J04182 lysosomal membrane glycoprotein-1 (lamp1),[1]; Table 3 Cluster 2,uu
same,cluster's characteristics J04444 cytochrome c-1 gene,[1]; Table 3 Cluster 2,uu
same,cluster's characteristics L07633 interferon-gamma,[1]; Table 3 Cluster 2,uu
same,"cluster's characteristics L35249 vacuolar h + -atpase mr 56,000 subunit (ho57)",[1]; Table 3 Cluster 2,uu
same,cluster's characteristics M60784 ul snrnp-specific protein,[1]; Table 3 Cluster 2,uu
same,cluster's characteristics M65028 heterogeneous nuclear ribonucleoprotein a/b,[1]; Table 3 Cluster 2,uu
same,cluster's characteristics U70063 human acid ceramidase,[1]; Table 3 Cluster 2,uu
same,cluster's characteristics U78525 human eukaryotic translation initiation factor (eif3),[1]; Table 3 Cluster 2,uu
same,"cluster's characteristics X70848 protein phosphatase 1, catalytic subunit",[1]; Table 3 Cluster 2,uu
same,cluster's characteristics Z47055 farnesyl pyrophosphate synthetase like,[1]; Table 3 Cluster 2,uu
same,"HLA class I induction, mean fluorescence intensity",CNCM I-2547,(980 vs. 135)
same,"HLA class I induction, mean fluorescence intensity",CNCM I-2548,(559 vs. 380)
same,"HLA class I induction, mean fluorescence intensity",CNCM I-2549,(175 vs. 203)
same,"HLA class I induction, mean fluorescence intensity",CNCM I-2546,(521 vs. 257)
same,"HLA class I induction, mean fluorescence intensity",CNCM I-2545,(184 vs. 196)
